Patent publication US20260217699A1, “BERBERINE TAUROURSODEOXYCHOLATE COMPOSITIONS AND METHODS THEREOF” (SHENZHEN HIGHTIDE BIOPHARMACEUTICAL LTD., priority 2023, published 2026)

What was measured:
Type in all cases: in vivo, Sprague-Dawley rats
[1] = system: 6-OHDA Stereotactic Injection Induced PD Rats; assay: Apomorphine-asymmetric rotation test
Text: (§1) The rats were respiratory anesthetized with isoflurane; the head was fixed to ensure that there was no movement and the brain surface was adjusted to be flat; the head was shaved, and a skin incision was made along the sagittal suture to expose the fontanel point; the glass electrode was positioned to the fontanel, and the axes of the coordinate monitor were zeroed to locate the brain areas of the SN and the Str based on the coordinates, in which the SN: AP=−5.0 mm; ML=−1.9 mm; DV=−8.5 mm, and Str: AP=+0.5 mm; ML=−3.0 mm; DV=−6.0 mm. […]; slowly inserted the needle into the localized area of SN and Str, waited for 10 min, and then administered the drug of 6-OHDA at a rate of […] for 10 min, and each animal was given […] of each of SN and Str area, and then the needle was slowly withdrawn after the drug was administered for 10 min, and the PD rat model was established.
The animals were tested three weeks post-administration. 0.5 mg/kg of apomorphine was injected intraperitoneally. The number of rotations of each rat in 30 min were recorded, and the rat appeared to rotate in place toward the opposite side of the injury using the rotating forelimb as a support point. […]
(§2) Experimental Methods: Seventy 180-220g SD male rats were selected and fed for one week for accumulation, and the PD model was established by stereotactic unilateral injection of 6-OHDA in the Substantia Nigra (SN) and Striatum (Str) regions and were randomly divided into five groups according to their body weights including Madopar group (Madopar, 50 mg/kg), BTUDC-L group (BTUDC, 100 mg/kg), BTUDC-M group (BTUDC, 500 mg/kg), and BTUDC-H group (BTUDC, 1000 mg/kg), with 10 animals in each group. […] At the end of the administration, the test articles were evaluated for tolerance in this model and in behavioral apomorphine—asymmetric rotation test, beam test, rotarod test and grip strength test, immunofluorescence staining (TH, Ibal), and cerebrospinal fluid inflammatory factor assays to evaluate the pharmacodynamic effects of the test articles. […]

TNF-α = assay: Elisa test of cerebrospinal fluid, TNF-α; settings: rat cerebrospinal fluid; BTUDC-H 1000 mg/kg p.o. Qd 21 days; Mean ± SEM, n=10; Model 271.022 ± 8.145; p<0.05 vs Model
Text: (§3) The cerebrospinal fluid was directly extracted by inserting a needle through the foramen magnum, and the supernatant was collected after centrifugation for ELISA testing. The kit brand was Shanghai Enzyme Link. The product codes of IL-6, IL-1β, and TNF-α were m1064292, m1037361, and m1002859, respectively. Processed the sample according to the instructions of the ELISA detection kit, adjusted the blank well to zero, measured the absorbance (OD value) of each well sequentially at a wavelength of 450 nm, and calculated the sample concentration based on the standard curve and OD value. […]
(§4) Dosing volume: 10 mL/kg • 1. […] Histochemical test: After the behavioral test, the cerebrospinal fluid from each animal (N=10) was collected, centrifuged to collect the supernatant, and stored at −80° C. for Elisa test (IL-6, IL-1β, TNF-α), then the animals in each group (N=5) were randomly selected to take the modeling side of the striatum for the detection of neurotransmitters, and the rest of them (N=5) were subjected to cardiac perfusion, which was performed by the process of perfusion, fixation, sedimentation and slicing for immunofluorescence staining and photographed, and the number or area of signals were counted by ImageJ software. • 4. […]

IL-1β = assay: Elisa test of cerebrospinal fluid, IL-1β; settings: rat cerebrospinal fluid; BTUDC-H 1000 mg/kg p.o. Qd 21 days; Mean ± SEM, n=10; Model 41.509 ± 1.298; p<0.05 vs Model
Text: as §3, §4

[2] = system: 6-OHDA Stereotactic Injection Induced PD Rats; assay: Rotarod test; settings: for Time on the Rod: Mean ± SEM, N=10, Model 63.250 ± 9.871
Text: as §1
The rotation speed of the rotary rod fatigue meter was set to 20 rpm/min with the test time of 5 min. The animals were placed on the rotating rod in batches for testing, and the time each animal spent on the rod was recorded to evaluate the motor coordination ability of the rats. Information on the rotarod test can also be found in the literature (Bohlen, et al. 2009 J Neurosci Methods 178(1):10-4).
In this study, 16 Sprague Dawley (SD) male rats 180g-220g were used to establish a PD model by stereotactic unilateral injection of 6-OHDA in the substantia nigra (SN) and striatum (Str) brain areas after one week of acclimatization feeding and were randomly divided into 2 groups of 8 rats each. One group was dosed with the test compound BTUDC 500 mg/kg (QD, p.o.) and the other group was the Model group, which was given an equal volume of 0.5% CMC-Na (QD, p.o.) as the test compound group. […]
as §2

Compound: COc1ccc2cc3[n+](cc2c1OC)CCc1cc2c(cc1-3)OCO2.C[C@H](CCC(=O)NCCS(=O)(=O)[O-])[C@H]1CC[C@H]2[C@@H]3[C@@H](O)C[C@@H]4C[C@H](O)CC[C@]4(C)[C@H]3CC[C@]12C [BTUDC, Berberine tauroursodeoxycholate]
- difference in number of ipsilateral rotations within 30 minutes vs Model group ([1]; 500 mg/kg QD p.o. 21 days, p>0.05): no statistically significant difference
- number of rotational circles within 30 min of apomorphine injection vs Model group ([1]; BTUDC-H 1000 mg/kg p.o. Qd 21 days): significantly lower
- Number of Ipsilateral Rotation ([1]; within 30 minutes of apomorphine injection, 500 mg/kg/day p.o. 21 days, 8 rats, Model 126.380 ± 31.681): 109.000 ± 23.670
- TNF-α Conc. (TNF-α): 250.424 ± 9.186 pg/mL
- IL-1β Conc. (IL-1β): 37.251 ± 1.005 pg/mL
- Rotarod Test Rod time ([2]; 500 mg/kg QD p.o. 21 days, Model 44.063 ± 4.6049, P < 0.001 vs Model): 252.413 ± 14.4032 s
- Time on the Rod ([2]; BTUDC-H 1000 mg/kg p.o. Qd 21 days, p<0.001 vs Model): 172.625 ± 17.355 s
- Time on the Rod ([2]; BTUDC-L 100 mg/kg p.o. Qd 21 days, no significance mark): 103.220 ± 5.806 s
- Time on the Rod ([2]; BTUDC-M 500 mg/kg p.o. Qd 21 days, p<0.001 vs Model): 148.070 ± 21.760 s
